Square brackets hold non-standard residues; d marks the D form. Peptide text beside a SMILES is read from it. * marks the point of attachment. ξ: configuration not given here. Propanoyl(3-(3-pyridyl)) = O=C(CCc1cccnc1)*; His(τ-Me) = Cn1cnc(C[C@H](N)C(=O)O)c1; Sta = CC(C)C[C@H](N)[C@@H](O)CC(=O)O; NHC(Me)(CH2OH)2 = CC(CO)(CO)N*; NHC(CH2OH)3 = OCC(CO)(CO)N*; ξ3Pal = NC(Cc1cccnc1)C(=O)O; Isovaleryl = CC(C)CC(=O)*; Nle = CCCC[C@H](N)C(=O)O; Boc = CC(C)(C)OC(=O)*; X2 = OCC1(N*)CCCCC1; X1 = CC(C)(CO)N*
Molecular target: T1, renin (Homo sapiens, UniProt P00797)
T1 sequence (P00797 67-406): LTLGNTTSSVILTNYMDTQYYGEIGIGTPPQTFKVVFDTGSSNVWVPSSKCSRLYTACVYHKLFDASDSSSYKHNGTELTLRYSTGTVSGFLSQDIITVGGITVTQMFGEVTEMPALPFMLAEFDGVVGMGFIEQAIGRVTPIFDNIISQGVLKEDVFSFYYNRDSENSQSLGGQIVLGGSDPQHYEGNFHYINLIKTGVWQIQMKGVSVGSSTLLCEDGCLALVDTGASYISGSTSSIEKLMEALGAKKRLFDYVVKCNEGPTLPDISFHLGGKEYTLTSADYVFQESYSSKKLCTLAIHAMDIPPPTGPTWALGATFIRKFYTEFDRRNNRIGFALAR
Experiment: not given
Settings: cited from earlier work

Structure (SMILES) | affinity for renin
CC(C)CC(=O)N[C@H](C(=O)N[C@H](C(=O)N[C@@H](CC(C)C)[C@@H](O)CC(=O)N[C@@H](C)C(=O)N[C@@H](CC(C)C)[C@@H](O)CC(=O)O)C(C)C)C(C)C [Pepstatin, isovaleryl-L-valyl-L-valyl-statyl-L-alanyl-statin] (Isovaleryl-VV[Sta]A[Sta]-OH) | low affinity for renin

Molecular target: T2, human plasma renin activity (PRA) (Homo sapiens, UniProt P00797)
T2 construct: from tissue; host or cells: human plasma pool
T2 sequence (P00797 67-406): T1 sequence (P00797 67-406)
Experiment: Inhibition of human plasma renin activity (PRA), angiotensin I released measured by radioimmunoassay
Type: biochemical
Settings: human plasma pool, 60 minutes at 37° C., phosphate buffer pH 7.4; IC50 evaluated in mol, expressed as -log IC50
Procedure: The products according to the invention were studied for their therapeutic properties and especially their inhibitory action on enzymes. More particularly, the compounds were evaluated "in vitro" in terms of their inhibition of human plasma renin activity (PRA).
The method of evaluation is based on that of GUYENE (J. Clin. Endocrinol. Metab., 1976, 43, 1301). The inhibition of PRA is evaluated from a human plasma pool rich in renin ([…] of angiotensin I released per milliliter per hour), incubated for 60 minutes at 37° C., in a phosphate buffer at pH 7.4, in the presence of increasing concentrations of the product to be studied.
Human plasma contains the substrate angiotensinogen and the enzyme:renin. The angiotensin I released during the reaction is measured by radioimmunoassay: Plasma Renin Activity Kit from Travenol (nos. CA 533, 553). An inhibitor of the conversion enzyme, phenylmethylsulfonyl fluoride (PMSF), is added to the incubation medium. The total incubation volume is 555 microliters made up as follows:
420 microliters of human plasma
11 to 50 microliters of the product to be studied, at variable concentrations
119 to 80 microliters of phosphate buffer 5 microliters of PMSF.
A 1N solution of acetic acid in methanol (19/1 by volume) and a 1N solution of sodium hydroxide in methanol (2/1 by volume) are prepared. In a mixture of equal volumes of these 2 solutions, a 0.001M stock solution of the product to be studied is prepared. The subsequent dilutions are then made up in the phosphate buffer.
The results are expressed as their logarithmic value (-log IC50).

Structure (SMILES) | IC50
CCCC[C@H](NC(=O)[C@H](Cc1ccccc1)NC(=O)OC(C)(C)C)C(=O)N[C@@H](CC(C)C)[C@@H](O)CC(=O)N[C@H](C(=O)NC(C)(CO)CO)[C@@H](C)CC [SR 43 574] (Boc-F[Nle][Sta]I-{NHC(Me)(CH2OH)2}) | 2.63 nM
CCCC[C@H](NC(=O)[C@H](Cc1ccccc1)NC(=O)OC(C)(C)C)C(=O)N[C@@H](Cc1ccccc1)[C@@H](O)CC(=O)N[C@H](C(=O)NC(CO)(CO)CO)[C@@H](C)CC [SR 43 576] | 3.98 nM
CCCC[C@H](NC(=O)[C@H](Cc1ccccc1)NC(=O)CCc1cccnc1)C(=O)N[C@@H](Cc1ccccc1)[C@@H](O)CC(=O)N[C@H](C(=O)NC(CO)(CO)CO)[C@@H](C)CC [SR 43 603] | 0.479 nM
CCCC[C@H](NC(=O)[C@H](Cc1ccccc1)NC(=O)OC(C)(C)C)C(=O)N[C@@H](CC(C)C)[C@@H](O)CC(=O)N[C@H](C(=O)NC(C)(C)CO)[C@@H](C)CC [SR 43 686] (Boc-F[Nle][Sta]I-X1) | 6.03 nM
CCCC[C@H](NC(=O)[C@H](Cc1ccccc1)NC(=O)CCc1cccnc1)C(=O)N[C@@H](CC(C)C)[C@@H](O)CC(=O)N[C@H](C(=O)NC(C)(CO)CO)[C@@H](C)CC [SR 43 707] ({Propanoyl(3-(3-pyridyl))}-F[Nle][Sta]I-{NHC(Me)(CH2OH)2}) | 3.55 nM
CCCC[C@H](NC(=O)[C@H](Cc1ccccc1)NC(=O)OC(C)(C)C)C(=O)N[C@@H](CC1CCCCC1)[C@@H](O)CC(=O)N[C@H](C(=O)NC(C)(CO)CO)[C@@H](C)CC [SR 43 721] | 7.76 nM
CC[C@H](C)[C@H](NC(=O)C[C@H](O)[C@H](CC(C)C)NC(=O)[C@H](Cc1c[nH]cn1)NC(=O)[C@H](Cc1ccccc1)NC(=O)CCc1cccnc1)C(=O)NC(C)(CO)CO [SR 43 737] ({Propanoyl(3-(3-pyridyl))}-FH[Sta]I-{NHC(Me)(CH2OH)2}) | 2.14 nM
CC[C@H](C)[C@H](NC(=O)C[C@H](O)[C@H](CC(C)C)NC(=O)C(Cc1cccnc1)NC(=O)[C@H](Cc1ccccc1)NC(=O)OC(C)(C)C)C(=O)NC(C)(CO)CO (some centres unmarked) [SR 43 763] (Boc-F[ξ3Pal][Sta]I-{NHC(Me)(CH2OH)2}) | 77.6 nM
CCCC[C@H](NC(=O)[C@H](Cc1ccccc1)NC(=O)OC(C)(C)C)C(=O)N[C@@H](CC(C)C)[C@@H](O)CC(=O)N[C@H](C(=O)NC1(CO)CCCCC1)[C@@H](C)CC [SR 43 799] (Boc-F[Nle][Sta]I-X2) | 5.5 nM
CCCC[C@H](NC(=O)[C@H](Cc1ccccc1)NC(=O)OC(C)(C)C)C(=O)N[C@@H](CC(C)C)[C@@H](O)CC(=O)N[C@@H](C)C(=O)NC(C)(C)CO [SR 43 860] (Boc-F[Nle][Sta]A-X1) | 33.1 nM
CC[C@H](C)[C@H](NC(=O)C[C@H](O)[C@H](CC(C)C)NC(=O)[C@H](Cc1cn(C)cn1)NC(=O)[C@H](Cc1ccccc1)NC(=O)CCc1cccnc1)C(=O)NC(C)(C)CO [SR 43 966] ({Propanoyl(3-(3-pyridyl))}-F[His(τ-Me)][Sta]I-X1) | 19.1 nM
CCCC[C@H](NC(=O)[C@H](Cc1ccccc1)NC(=O)OC(C)(C)C)C(=O)N[C@@H](CC(C)C)[C@@H](O)CC(=O)N[C@H](C(=O)NC(CO)(CO)CO)[C@@H](C)CC [SR 44 094] (Boc-F[Nle][Sta]I-{NHC(CH2OH)3}) | 18.2 nM
CC[C@H](C)[C@H](NC(=O)C[C@H](O)[C@H](CC1CCCCC1)NC(=O)[C@H](Cc1nc2ccccc2[nH]1)NC(=O)[C@H](Cc1ccccc1)NC(=O)OC(C)(C)C)C(=O)NC(C)(CO)CO [SR 44 125] | 36.3 nM
